Laboratory results taken from US9617602B2, “Methods and compositions for determining resistance to androgen receptor therapy” (Aragon Pharmaceuticals, Inc., priority 2012, dated 2017).

Legend:
[1] = test system: LNCaP cells; test: Transcriptional reporter assay (probasin-luciferase); assay type: cell-based, human
Description: With the exception of the LNCaP/AR(cs)-Luc cells that contain an integrated androgen responsive reporter, cells were transiently transfected using Lipofectin® (Life Technologies) according to the manufacturer's protocol. […] Following transfection, the cells were incubated for 4 hours.
Following 48 hour incubation the medium was removed and the cells were lysed in 40 μL of lysis buffer (25 mM Tris Phosphate, 2 mM CDTA, 10% Glycerol, 0.5% Triton X-100, 2 mM DTT).

[2] = test system: LNCaP/AR(cs) cells; test: Endogenous gene transcriptional assay (real-time PCR of androgen responsive genes); assay type: cell-based, human
[3] = Table 4A, 1 nM R1881 or 30 μM compound, vehicle=1.00

CNC(=O)c1ccc(N2C(=S)N(c3cnc(C#N)c(C(F)(F)F)c3)C(=O)C23CCC3)cc1F [ARN-509]
Agonist Transcriptional Reporter Assay (% Max Activity) ([1]; [Antagonists] = 50 μM): + (‘+’ = <5) | Antagonist Transcriptional Reporter Assay (% Max Activity) ([1]; [Antagonists] = 50 μM in presence of R1881): + (‘+’ = <5) | AMIGO2 expression, antagonist transcription ([2]; +1 nM R1881, 0.3 μM): 0.30 | BDNF expression, antagonist transcription ([2]; +1 nM R1881, 0.3 μM): 0.43 | CAM2KN1 expression, antagonist transcription ([2]; +1 nM R1881, 0.3 μM): 0.04 | FASN expression, antagonist transcription ([2]; +1 nM R1881, 0.3 μM): 1.92 | FKBP5 expression, antagonist transcription ([2]; +1 nM R1881, 0.3 μM): 33.14 | HPGD expression, antagonist transcription ([2]; +1 nM R1881, 0.3 μM): 105.97 | NCAPD3 expression, antagonist transcription ([2]; +1 nM R1881, 0.3 μM): 43.93 | NKX3.1 expression, antagonist transcription ([2]; +1 nM R1881, 0.3 μM): 8.32 | NOV expression, antagonist transcription ([2]; +1 nM R1881, 0.3 μM): 0.03 | ORM1 expression, antagonist transcription ([2]; +1 nM R1881, 0.3 μM): 5100.90 | PLD1 expression, antagonist transcription ([2]; +1 nM R1881, 0.3 μM): 0.02 | PSA expression, antagonist transcription ([2]; +1 nM R1881, 0.3 μM): 19.09 | SLUG expression, antagonist transcription ([2]; +1 nM R1881, 0.3 μM): 71.33 | STEAP4 expression, antagonist transcription ([2]; +1 nM R1881, 0.3 μM): 1019.98 | TMPRSS2 expression, antagonist transcription ([2]; +1 nM R1881, 0.3 μM): 19.07 | AMIGO2 expression, antagonist transcription ([2]; +1 nM R1881, 1 μM): 0.31 | BDNF expression, antagonist transcription ([2]; +1 nM R1881, 1 μM): 0.35 | CAM2KN1 expression, antagonist transcription ([2]; +1 nM R1881, 1 μM): 0.06 | FASN expression, antagonist transcription ([2]; +1 nM R1881, 1 μM): 1.52 | FKBP5 expression, antagonist transcription ([2]; +1 nM R1881, 1 μM): 22.49 | HPGD expression, antagonist transcription ([2]; +1 nM R1881, 1 μM): 76.25 | NCAPD3 expression, antagonist transcription ([2]; +1 nM R1881, 1 μM): 32.00 | NKX3.1 expression, antagonist transcription ([2]; +1 nM R1881, 1 μM): 9.92 | NOV expression, antagonist transcription ([2]; +1 nM R1881, 1 μM): 0.09 | ORM1 expression, antagonist transcription ([2]; +1 nM R1881, 1 μM): 2679.73 | PLD1 expression, antagonist transcription ([2]; +1 nM R1881, 1 μM): 0.02 | PSA expression, antagonist transcription ([2]; +1 nM R1881, 1 μM): 21.75 | SLUG expression, antagonist transcription ([2]; +1 nM R1881, 1 μM): 62.00 | STEAP4 expression, antagonist transcription ([2]; +1 nM R1881, 1 μM): 742.61 | TMPRSS2 expression, antagonist transcription ([2]; +1 nM R1881, 1 μM): 24.11 | AMIGO2 expression, antagonist transcription ([2]; +1 nM R1881, 3 μM): 0.52 | BDNF expression, antagonist transcription ([2]; +1 nM R1881, 3 μM): 0.67 | CAM2KN1 expression, antagonist transcription ([2]; +1 nM R1881, 3 μM): 0.19 | FASN expression, antagonist transcription ([2]; +1 nM R1881, 3 μM): 1.08 | FKBP5 expression, antagonist transcription ([2]; +1 nM R1881, 3 μM): 12.56 | HPGD expression, antagonist transcription ([2]; +1 nM R1881, 3 μM): 32.19 | NCAPD3 expression, antagonist transcription ([2]; +1 nM R1881, 3 μM): 15.57 | NKX3.1 expression, antagonist transcription ([2]; +1 nM R1881, 3 μM): 12.01 | NOV expression, antagonist transcription ([2]; +1 nM R1881, 3 μM): 0.31 | ORM1 expression, antagonist transcription ([2]; +1 nM R1881, 3 μM): 1031.40 | PLD1 expression, antagonist transcription ([2]; +1 nM R1881, 3 μM): 0.04 | PSA expression, antagonist transcription ([2]; +1 nM R1881, 3 μM): 23.57 | SLUG expression, antagonist transcription ([2]; +1 nM R1881, 3 μM): 50.70 | STEAP4 expression, antagonist transcription ([2]; +1 nM R1881, 3 μM): 256.89 | TMPRSS2 expression, antagonist transcription ([2]; +1 nM R1881, 3 μM): 23.38 | AMIGO2 expression, antagonist transcription ([2]; +1 nM R1881, 10 μM): 0.60 | BDNF expression, antagonist transcription ([2]; +1 nM R1881, 10 μM): 0.74 | CAM2KN1 expression, antagonist transcription ([2]; +1 nM R1881, 10 μM): 0.43 | FASN expression, antagonist transcription ([2]; +1 nM R1881, 10 μM): 0.60 | FKBP5 expression, antagonist transcription ([2]; +1 nM R1881, 10 μM): 2.74 | HPGD expression, antagonist transcription ([2]; +1 nM R1881, 10 μM): 8.36 | NCAPD3 expression, antagonist transcription ([2]; +1 nM R1881, 10 μM): 2.39 | NKX3.1 expression, antagonist transcription ([2]; +1 nM R1881, 10 μM): 7.22 | NOV expression, antagonist transcription ([2]; +1 nM R1881, 10 μM): 0.86 | ORM1 expression, antagonist transcription ([2]; +1 nM R1881, 10 μM): 156.90 | PLD1 expression, antagonist transcription ([2]; +1 nM R1881, 10 μM): 0.11 | PSA expression, antagonist transcription ([2]; +1 nM R1881, 10 μM): 12.90 | SLUG expression, antagonist transcription ([2]; +1 nM R1881, 10 μM): 11.15 | STEAP4 expression, antagonist transcription ([2]; +1 nM R1881, 10 μM): 32.98 | TMPRSS2 expression, antagonist transcription ([2]; +1 nM R1881, 10 μM): 11.45 | AMIGO2 expression, antagonist transcription ([2]; +1 nM R1881, 30 μM): 0.76 | BDNF expression, antagonist transcription ([2]; +1 nM R1881, 30 μM): 0.88 | CAM2KN1 expression, antagonist transcription ([2]; +1 nM R1881, 30 μM): 0.42 | FASN expression, antagonist transcription ([2]; +1 nM R1881, 30 μM): 0.64 | FKBP5 expression, antagonist transcription ([2]; +1 nM R1881, 30 μM): 1.08 | HPGD expression, antagonist transcription ([2]; +1 nM R1881, 30 μM): 2.78 | NCAPD3 expression, antagonist transcription ([2]; +1 nM R1881, 30 μM): 0.96 | NKX3.1 expression, antagonist transcription ([2]; +1 nM R1881, 30 μM): 5.49 | NOV expression, antagonist transcription ([2]; +1 nM R1881, 30 μM): 0.82 | ORM1 expression, antagonist transcription ([2]; +1 nM R1881, 30 μM): 16.42 | PLD1 expression, antagonist transcription ([2]; +1 nM R1881, 30 μM): 0.32 | PSA expression, antagonist transcription ([2]; +1 nM R1881, 30 μM): 7.20 | SLUG expression, antagonist transcription ([2]; +1 nM R1881, 30 μM): 5.49 | STEAP4 expression, antagonist transcription ([2]; +1 nM R1881, 30 μM): 6.86 | TMPRSS2 expression, antagonist transcription ([2]; +1 nM R1881, 30 μM): 5.94 | AMIGO2 gene expression [2, 3]: 0.72 | BDNF gene expression [2, 3]: 0.85 | CAM2KN1 gene expression [2, 3]: 0.80 | FASN gene expression [2, 3]: 0.75 | FKBP5 gene expression [2, 3]: 0.99 | HPGD gene expression [2, 3]: 1.18 | NCAPD3 gene expression [2, 3]: 0.91 | NKX3.1 gene expression [2, 3]: 1.13 | NOV gene expression [2, 3]: 1.04
